The values below come from patent US11629141B2, “Proteasome inhibitors and uses thereof” (CORNELL UNIVERSITY, priority 2015, dated 2023).

“Also recorded” adds a separate entry of the source. Where two headings read alike, the source gives them in different places. A value given as a limit tells only on which side of the number the result lay.

In assay [1] the target is T1, human immunoproteasome β5i (Homo sapiens, UniProt P28062).
T1 construct: purchased Boston Biochem Inc
The assay is described as follows: IC50 against chymotryptic β5i activity of human immunoproteasome (96-well plate, Ac-ANW-AMC). The class given is biochemical. To be noted: for IC50: β5i, substrate Ac-ANW-AMC, read-out: IC50 Hu i-20S (Ac-ANW-AMC). The method, then: A 96-well-plate assays were used to determine the IC50s against the chymotryptic β5 activities of the proteasomes. Both human constitutive proteasome and immunoproteasome were purchased from Boston Biochem Inc. 1 μL of 100× compound in DMSO at designated concentrations were spotted at the bottom of the wells. DMSO was used as a control. […] The hydrolysis of the substrate over time in each well was monitored at excitation 360 nm, emission 460 nm for 90 minutes. IC50s were estimated by fitting the velocities of hydrolysis against compound concentrations using PRISM. […] SDS (0.02%) was used as activator, and 0.01% BSA was used in the reaction buffer.

The target in assay [2] is T2, human constitutive proteasome β5c (Homo sapiens, UniProt P28074).
T2 construct: purchased Boston Biochem Inc
As to the kind of experiment: IC50 against chymotryptic β5c activity of human constitutive proteasome (96-well plate, Suc-LLVY-AMC). Type of assay: biochemical. To be noted: β5c; substrate Suc-LLVY-AMC; read-out: IC50 Hu c-20S (Suc-LLVY-AMC). As to the method: A 96-well-plate assays were used to determine the IC50s against the chymotryptic β5 activities of the proteasomes. Both human constitutive proteasome and immunoproteasome were purchased from Boston Biochem Inc. 1 μL of 100× compound in DMSO at designated concentrations were spotted at the bottom of the wells. DMSO was used as a control. Final concentrations of the inhibitors were from 100 μM to 0.098 μM. The hydrolysis of the substrate over time in each well was monitored at excitation 360 nm, emission 460 nm for 90 minutes. IC50s were estimated by fitting the velocities of hydrolysis against compound concentrations using PRISM. […] Suc-LLVY-AMC was used for βc at final concentration of 25 μM, and Ac-ANW-AMC for b5i at final concentration of 15 μM. SDS (0.02%) was used as activator, and 0.01% BSA was used in the reaction buffer.
The foregoing features of these AsnEDA encouraged a further round of SAR studies (Table 5) based on varying the carboxylic acid at the ethylenediamine, the N-cap at the Asn, and the side chain of the Asn, based on PKS21004. All compounds listed in the Table 5 were synthesized as described in Examples 6-77. All final compounds were confirmed by NMR and HRMS. IC50s of all compounds against β5i and β5c (Table 5), β1i, β2i, β1c and β2c were determined following a reported method (Lin et al., “N,C-Capped Dipeptides With Selectivity for Mycobacterial Proteasome Over Human Proteasomes: Role of S3 and S1Binding Pockets,” J Am Chem Soc. 135:9968-9971 (2013), which is hereby incorporated by reference in its entirety). […] The [1,1′-biphenyl]-3-carboxamide of PKS21004 was then modified with the following substituents: 4′-fluoro (PKS21026), 4′-cyano (PKS21028), 4-fluoro (PKS21196), 4,3′-difluoro (PKS21195) and 4,2′-difluoro (PKS21187).

For assay [3], the system named is Plasmodium falciparum. As to the kind of experiment: Growth of Plasmodium falciparum in red blood cells (SYBR Green, 72 hours). The class given is cell-based. The method, then:
Continuous in vitro cultures of Plasmodium falciparum: were maintained in human red blood cells (RBC) diluted to a hematocrit of 5% in RPMI 1640 medium with HEPES and Hypoxanthine and completed with 0.5% Albumax II (Invitrogen), 0.25% sodium bicarbonate, and 0.1 mg/ml gentamicin. Parasites were incubated at 37° C. in a gas mixture of 5% oxygen, 5% carbon dioxide, and 90% nitrogen.
Parasite sensitivity to novel compounds were determined using a SYBR Green (Invitrogen S1046) drug assay protocol. P. falciparum of various clinic stains were cultured with compounds at concentrations in a series of dilution in a clear, sterile 96-well plate for 72 hours. Subsequently, 150 μl of the cultures were transferred to a black 96-well plate and placed in the freezer for red blood cell lysis. The plates were thawed and suspended in a Sybr Green Lysis buffer. GraphPad Prism was used to analyze the raw data collected […]. Drug concentrations were converted to logarithms, normalized, and then curve fitted by non-linear regression to obtain EC50 values.
Plasmodium falciparum: parasites were cultured in human red cells. Drug assays were run in 96 well plates at a total volume of 200 μl. Assays were set up at a starting parasitemia (percent of infected red cells) of 0.5%. Test compounds were plated at concentrations of 2778 nM to 0.4 nM. The test plates were grown under standard low oxygen conditions at 37° C. for 72 hours. At that time the plates were prepared for growth determination, first the plates were frozen and thawed to lyse the red blood cells, 150 μl of the lysed thawed culture was transferred to a black 96 well plate, and mixed in a lysis buffer with SYBR green DNA dye. The fluorescence of each well was recorded in a plate reader with excitation wavelength 490 nm and emission wavelength 530 nm and normalized relative to DMSO control. The EC50s were determined using Prism software.

Assay [4] has as its system Pf20S β5. As to the kind of experiment: Labeling of Pf20S active subunits by activity probe MV151 in Pf lysates. To be noted: 1 hour with inhibitor, then MV151 (2 μM) 1 hour. The class given is biochemical, P. falciparum. The method, then:
Pf lysates were incubated with inhibitors at indicated concentrations for 1 hour prior to incubation with MV151 (2 μM) for an additional hour. SDS pages were scanned on a Typhoon fluorescent scanner. […] BTZ was used as a positive control.

Assay [5] concerns Pf Gametocytes. The assay is described as follows: Gametocyte killing assay (DilC1(5), flow cytometry). The class given is cell-based. The following applies: Plasmodium falciparum; NF54 peg4-tdTomato, 72 hour incubation; read-out: EC50 against Pf Gametocytes. The method, then: Asexual replication of NF54 peg4-tdTomato parasites was eliminated by treating with 50 mM GlcNAc and 20 U/mL Heparin for 3 days. NF54 peg4-tdTomato parasites then were maintained using standard culture techniques. Gametocytes were induced synchronously according to Fivelman et al., “Improved Synchronous Production of Plasmodium Falciparum Gametocytes in Vitro,” Mol Biochemo Parasitol. 154(1):119-123 (2007), which is hereby incorporated by reference in its entirety. Asexual replication was eliminated by treating with 50 mM GlcNAc for 3 days. Gametocyte killing assays were setup on days 5 and 10 in triplicate 96-well format at 1% hematocrit and 2% gametocytemia. Compounds were setup in triplicate and serially diluted 3-fold. In addition, 6 solvent controls (DMSO) were distributed evenly across the plate. Following a 72 hour incubation, Stage III-IV (Day 5-7) and Stage IV-V (Day 10-12), (start the incubation in the afternoon on Day 5 and Day 10, take out plate for assay on Day8 and Day13 afternoon) cultures were stained with 16 nM Hoechst 33342 and 50 nM DilC1(5) for 30 min at 37 C. Using a Cytek DxP12 flow cytometer, gametocytemia was determined by gating for DNA+, hemozoin-high cells and gametocyte viability was inferred based on mitochondrial membrane potential-dependent accumulation of DilC1(5) for 2000-3000 gametocytes (Tanaka et al., “Potent Plasmodium Falciparum Gametocytocidal Activity of Diaminonaphthoquinones, Lead Antimalarial Chemotypes Identified in an Antimalarial Compound Screen,” Antimicrob. Agents Chemother. 2015, 59:1389 (2015), which is hereby incorporated by reference in its entirety). Mean DilC1(5) signal was normalized to solvent control and the overall minimum and used to calculate the EC50 (FIG. 3 and Table 4).
On the technique in general: A flow cytometer gives signals particle by particle.

The mark [6] stands for this setting: Erythrocyte, P.f. 3D7, growth in red blood cells, read-out: EC50 (nM) (P.f.).

Usually IC50 stands for the concentration needed to halve the response being measured. Take `CC(CNC(=O)c1cccc(-c2ccccc2)c1)NC(=O)[C@H](CC(=O)NC(C)(C)C)NC(=O)CCc1ccccc1` (mixture of isomers) [PKS21018]: the figures for the concentration for half-maximal inhibition (IC50) in assay [1] and in assay [2] were 2350 nM and 14600 nM, respectively. The EC50 in assay [3] (setting [6]) was determined as 364 nM.
Turning to `CC(C)(C)NC(=O)C[C@H](NC(=O)CCc1ccccc1)C(=O)NCCNC(=O)c1cccc2ccccc12` [PKS3080], the IC50 in assay [1] is 370 nM; in assay [2], 1220 nM. Besides, in assay [3] (setting [6]), the EC50 amounted to 23 nM.
For `CC(C)(C)NC(=O)C[C@H](NC(=O)CCc1ccccc1)C(=O)NCCNC(=O)c1ccc(-c2ccccc2)cc1` [PKS21003], the IC50 in assay [1] and in assay [2] was more than 100000 nM in each case. In assay [4], the “labeling of Pf20S β5 by MV151” value is listed as “did not”. Moreover, the EC50 in assay [3] (D6, Erythrocyte, read-out: EC50s against P. falciparum strain D6) is more than 2770 nM; in assay [3] (DD2, Erythrocyte, read-out: EC50s against P. falciparum strain Dd2), more than 2770 nM; in assay [3] (setting [6]), more than 2770 nM; in assay [3] (Erythrocyte, read-out: EC50s against P. falciparum strain IPC 3663) it was more than 2770 nM; in assay [3] (Erythrocyte, read-out: EC50s against P. falciparum strain IPC 4884) it was more than 2770 nM; in assay [3] (Erythrocyte, read-out: EC50s against P. falciparum strain IPC 5188), more than 2770 nM. For the same compound, the EC50 is more than 2770 nM in assay [3] (Erythrocyte, read-out: EC50s against P. falciparum strain Sb1-a6); more than 2770 nM in assay [3] (Erythrocyte, read-out: EC50s against P. falciparum strain V1S); more than 2770 nM in assay [3] (HB3, Erythrocyte, read-out: EC50s against P. falciparum strain HB3).
Consider `CC(C)(C)NC(=O)C[C@H](NC(=O)CCc1ccccc1)C(=O)NCCCNC(=O)c1cccc(-c2ccccc2)c1` [PKS21019], for which the values for the IC50 in assay [1] and in assay [2] were 276 nM and 3460 nM, respectively. For the same compound, the EC50 in assay [3] (setting [6]) turned out to be 30 nM.
On to `CC(C)(C)NC(=O)C[C@H](NC(=O)CCc1ccccc1)C(=O)NCCNC(=O)c1ccc2ccccc2c1` [PKS21025], for which the “improved potency against β5i” value in assay [1] (relative to PKS3080) was found to be 3 fold. Besides, in assay [1] (β5i over β5c), the “selectivity for β5i over β5c” value is listed as 26 fold. In addition, the results for the IC50 in assay [1] and in assay [2] were 284 nM and 3600 nM, respectively. Besides, the EC50 in assay [3] (setting [6]) was found to be 320 nM.
`CC(C)(C)NC(=O)C[C@H](NC(=O)CCc1ccccc1)C(=O)NCCNC(=O)c1cccc(-c2ccc(F)cc2)c1` [PKS21026]: the IC50 in assay [1] amounted to 110 nM; in assay [2], 1160 nM. Further, the EC50 in assay [3] (setting [6]) worked out at 100 nM.
As for `Cc1cc(C(=O)N[C@@H](CC(=O)NC(C)(C)C)C(=O)NCCNC(=O)c2cc(-c3ccccc3)ccn2)no1` [PKS21224], the IC50 in assay [1] is 746 nM; in assay [2], 33700 nM. Also, the EC50 in assay [5] amounted to 162 nM; in assay [3] (setting [6]), 11 nM.
With `Cc1ccc(S(=O)(=O)N[C@@H](CC(=O)NC(C)(C)C)C(=O)NCCNC(=O)c2cc(-c3ccccc3)ccn2)cc1` [PKS21229], the IC50 in assay [1] was determined as 19 nM; in assay [2], 510 nM. The EC50 in assay [3] (setting [6]) was 1 nM.
For the compound `Cc1cc(C(=O)N[C@@H](CC(=O)NC(C)(C)C)C(=O)NCCNC(=O)c2cccc(-c3cc[nH]n3)c2)no1` [PKS21287], the IC50 was determined as 1150 nM in assay [1] and 21100 nM in assay [2]. Further, the figures for the EC50 in assay [5] and in assay [3] (setting [6]) were 206 nM and 34 nM, respectively. Besides, the “labeling of Pf20S β5 by MV151” value in assay [4] is listed as “block labeling; also recorded: dose-dependently inhibited the labeling”.
Turning to `Cc1ccc(S(=O)(=O)N[C@@H](CC(=O)NC(C)(C)C)C(=O)NCCNC(=O)c2ccccc2F)cc1` [PKS21291], the figures for the IC50 in assay [1] and in assay [2] were 55 nM and 520 nM, respectively. In addition, in assay [3] (setting [6]), the EC50 turned out to be 11 nM.
In the case of `Cc1ccc(S(=O)(=O)N[C@@H](CC(=O)NC(C)(C)C)C(=O)NCCNC(=O)c2ccccc2O)cc1` [PKS21292], the results for the IC50 in assay [1] and in assay [2] were 15 nM and 187 nM, respectively. Besides, the EC50 in assay [3] (setting [6]) was 2.9 nM.
In the case of `Cc1cc(C(=O)N[C@@H](CC(=O)NC(C)(C)C)C(=O)NCCNC(=O)c2cccc(-n3cccn3)c2)no1` [TDI4258], the EC50 in assay [3] (setting [6]) stood at 29 nM.
